# Reference: patent publication US5962533A, “Hydroxy polyamines” (priority 1996, dated 1999)
# Structures can show the parent of a compound that is named as a salt.
# Key:
# [1] = test system: castor oil-induced diarrhea; test: Castor oil-induced diarrhea; format: in vivo, rat
# From the text: Castor Oil-Induced Diarrhea. Male Sprague-Dawley rats (350-400 g) were fasted overnight in hanging wire cages and allowed free access to water.
# [2] = test system: NMDA receptor; test: NMDA assay: specific [3H]MK-801 binding to washed rat cerebral cortical membranes; conditions: 100 μm L-glutamate, 100 μm glycine, 2 nm [3H]MK-801
# From the text: FIG. 4 depicts the effects of (HO)2 DEHSPM and DEHSPM on the NMDA receptor (MK-801 binding). Each data point represents the mean ±s.d. of three experiments. Each experiment was, in turn, performed in triplicate. "100% activity" is defined as the amount of specific MK-801 binding to washed rat cerebral cortical membranes in the presence of saturating concentrations of coagonists (100 μm L-glutamate, 100 μm glycine) and 2 nm [^3 H]MK-801.
# NMDA Assay. The procedure for measuring specific binding of [^3 H]MK-801 to the N-methyl-D-aspartate receptor complex was a modification of the method of Ransom and Stec [J. Neurochem., Vol. 51, pages 830-836 (1988)]. Cerebral cortices from young male Sprague-Dawley rats (200-300 g) were homogenized with 10 volumes ice-cold 0.32M sucrose using a motor-driven glass/Teflon homogenizer. The homogenate was centrifuged at 1,000 g for 10 minutes and the pellet was discarded. The supernatant was then centrifuged at 18,000 g for 20 minutes. The 18,000 g pellet was then resuspended in 10 volumes buffer A (5 mm Tris-HCl, pH 7.7) at 4° C., homogenized using high-intensity ultrasound and centrifuged at 8,000 for 20 minutes. The supernatant and upper buffy coat of the pellet were combined and centrifuged at 50,000 g for 20 minutes. The pellet was then resuspended in 10 volumes buffer A and homogenized using high-intensity ultrasound. These resuspended membranes were then centrifuged at 50,000 g, discarding the supernatant. The membranes were washed in this manner an additional three times and stored as a frozen suspension at -80° C. for at least 18 hours, but no longer than 2 weeks before use.
# For binding experiments, frozen membranes were thawed, pelleted at 50,000 g for 20 minutes and washed as described above, except that 20 volumes of buffer A were used for resuspension, for a total of four times. The final pellet was resuspended in buffer B (5 mm Tris-HCl, pH 7.5) at 23° C. The binding assay mixture was 1.00 ml buffer B containing 200-300 μg membrane protein, 100 μm L-glutamate, 100 μm glycine, 2 nm [^3 H]MK-801 and tetraamine at the following concentrations: 0 ("100%+L-glu,+gly-Control") and 0.05, 0.1, 0.5, 1, 5, 10, 50, 100, 500 and 1,000 μm. Non-specific binding was determined using 100 μm MK-801.
# Binding assays were performed in triplicate at 23° C. for one hour and were terminated by filtration through Whatman GF/B glass fiber filters followed by three 4.0 ml rinses of ice-cold buffer B using a Brandel M-48 Cell Harvester.
# [3] = test system: L1210 cells; test: Polyamine pool analysis in analogue-treated L1210 cells (HPLC); format: cell-based, Murine; conditions: for PUT level relative to untreated controls / SPD level relative to untreated controls / SPM level relative to untreated controls: L1210 cells, control = 100%
# Protocol: Polyamine Pool Analysis. While in logarithmic growth, cells were treated with the polyamine derivatives. […] Each supernatant was frozen at -20° C. until analysis by HPLC.
# [4] = 3.5 μm analogue, listed as (OH)2 DEHSPM
compound,measurement,setting,value
"CCNCC[C@@H](O)CNCCCCNC[C@H](O)CCNCC [(HO)2 DEHSPM, N^1,N^14 -Diethyl-3(R),12(R)-dihydroxyhomospermine tetrahydrochloride]",prevention of castor oil-induced diarrhea,"[1]; 1 mg/kg, rat",not an effective anti-diarrheal agent
same,prevention of castor oil-induced diarrhea,"[1]; 2.5 mg/kg, rat, six hour observation",partially effective
same,prevention of castor oil-induced diarrhea,"[1]; 5 mg/kg subcutaneous, rat, six hour assay",as effective as DEHSPM at preventing diarrhea
same,prevention of castor oil-induced diarrhea,"[1]; 18 kg/mg, rat",effectively prevented the onset of diarrhea
same,minimal effective dose,"[1]; Rattus norvegicus, sc, read-out: minimum effective dose for prevention of diarrhea",5 mg/kg
same,stool output / diarrhea during 6 hour assay (FIG. 8),"[1]; subcutaneous injection 30 minutes before castor oil 5 ml/kg, rat",virtually no stool output
same,concentration showing agonist activity on MK-801 binding,[2],0.5-1.0 μm
same,concentrations of maximal antagonism of MK-801 binding,[2],≥ 50 μm
same,concentrations showing marked antagonist activity on MK-801 binding,[2],above 5 μm
same,PUT level relative to untreated controls,[3]; 0.7 μm analogue,45%
same,SPD level relative to untreated controls,[3]; 0.7 μm analogue,57%
same,SPM level relative to untreated controls,[3]; 0.7 μm analogue,96%
same,PUT level relative to untreated controls,[3]; 3.5 μm analogue,below detectable limits
same,SPD level relative to untreated controls,[3]; 3.5 μm analogue,below detectable limits
same,SPM level relative to untreated controls,[3]; 3.5 μm analogue,60%
same,PUT level relative to untreated controls,[3]; [4],0%
same,SPD level relative to untreated controls,[3]; [4],0%
same,SPM level relative to untreated controls,[3]; [4],68%
same,N-deethylation by L1210 cells,[3]; in vitro conditions,do not N-deethylate
